The NIST ThermoML archive (doi:10.1016/j.jct.2017.11.003)
Numbers after ± are expanded uncertainties.

Experiment: xn = mol fraction of the nth substance listed
Conditions: 100 kPa, Liquid; for speed of sound: Frequency=2 MHz, Linear variable-path acoustic interferometer; for mass density: Vibrating tube method

Cc1ccccc1Cl [2-chlorotoluene] + CCCCCCCCCO
Conditions	mass density, 293.15 K [kg/m3]	mass density, 298.15 K [kg/m3]	mass density, 303.15 K [kg/m3]	mass density, 308.15 K [kg/m3]	speed of sound, 293.15 K [m/s]	speed of sound, 298.15 K [m/s]	speed of sound, 303.15 K [m/s]	speed of sound, 308.15 K [m/s]
x1 = 0.0846	843 ± 4	840 ± 4	836 ± 4	832 ± 4	1375.9 ± 4	1360.1 ± 4	1348.7 ± 4	1325.2 ± 4
x1 = 0.1974	864 ± 4	861 ± 4	857 ± 4	853 ± 4	1367.7 ± 4	1351.5 ± 4	1339.2 ± 4	1315.5 ± 4
x1 = 0.2911	883 ± 4	880 ± 4	876 ± 4	872 ± 4	1359.7 ± 4	1342.9 ± 4	1329.6 ± 4	1305.8 ± 4
x1 = 0.3964	906 ± 4	902 ± 4	898 ± 4	894 ± 4	1349.9 ± 4	1331.9 ± 4	1318.6 ± 4	1294 ± 4
x1 = 0.4896	928 ± 4	924 ± 4	920 ± 4	915 ± 4	1341.3 ± 4	1322.3 ± 4	1308.2 ± 4	1284 ± 4
x1 = 0.5943	954 ± 4	950 ± 4	946 ± 4	941 ± 4	1331.5 ± 4	1312.2 ± 4	1298 ± 4	1273.4 ± 4
x1 = 0.6918	981 ± 4	976 ± 4	972 ± 4	967 ± 4	1324 ± 4	1304.4 ± 4	1290 ± 4	1265.8 ± 4
x1 = 0.7948	1011 ± 4	1007 ± 4	1002 ± 4	997 ± 4	1318 ± 4	1298.5 ± 4	1284 ± 4	1260.8 ± 4
x1 = 0.898	1045 ± 4	1040 ± 4	1036 ± 4	1031 ± 4	1315.2 ± 4	1297 ± 4	1280.7 ± 4	1259.9 ± 4
x1 = 1	1082 ± 4	1077 ± 4	1073 ± 4	1068 ± 4	1317 ± 4	1299.7 ± 4	1283.9 ± 4	1265.8 ± 4

Cc1cccc(Cl)c1 [3-chlorotoluene] + CCCCCCCCCO
Conditions	mass density, 293.15 K [kg/m3]	mass density, 298.15 K [kg/m3]	mass density, 303.15 K [kg/m3]	mass density, 308.15 K [kg/m3]	speed of sound, 293.15 K [m/s]	speed of sound, 298.15 K [m/s]	speed of sound, 303.15 K [m/s]	speed of sound, 308.15 K [m/s]
x1 = 0.0967	844 ± 4	841 ± 4	838 ± 4	834 ± 4	1374.3 ± 4	1357.5 ± 4	1345.4 ± 4	1320.9 ± 4
x1 = 0.1893	861 ± 4	858 ± 4	854 ± 4	850 ± 4	1366.3 ± 4	1348.2 ± 4	1335.6 ± 4	1310.1 ± 4
x1 = 0.2985	883 ± 4	879 ± 4	875 ± 4	871 ± 4	1355.3 ± 4	1336.2 ± 4	1323 ± 4	1297.4 ± 4
x1 = 0.3926	902 ± 4	898 ± 4	894 ± 4	890 ± 4	1345 ± 4	1325.6 ± 4	1310.9 ± 4	1286 ± 4
x1 = 0.4834	923 ± 4	919 ± 4	914 ± 4	910 ± 4	1335.2 ± 4	1315.2 ± 4	1300 ± 4	1275.7 ± 4
x1 = 0.5953	950 ± 4	945 ± 4	941 ± 4	937 ± 4	1323.7 ± 4	1303.7 ± 4	1288.3 ± 4	1264.9 ± 4
x1 = 0.6918	975 ± 4	970 ± 4	966 ± 4	961 ± 4	1315.7 ± 4	1296 ± 4	1280.3 ± 4	1257.6 ± 4
x1 = 0.7946	1004 ± 4	1000 ± 4	995 ± 4	990 ± 4	1310.2 ± 4	1291.2 ± 4	1274.7 ± 4	1254 ± 4
x1 = 0.8963	1036 ± 4	1031 ± 4	1027 ± 4	1022 ± 4	1308.7 ± 4	1290.7 ± 4	1273.6 ± 4	1253.9 ± 4
x1 = 1	1072 ± 4	1067 ± 4	1063 ± 4	1058 ± 4	1313.8 ± 4	1296.5 ± 4	1279.5 ± 4	1261.2 ± 4

Cc1ccc(Cl)cc1 [4-chlorotoluene] + CCCCCCCCCO
Conditions	mass density, 293.15 K [kg/m3]	mass density, 298.15 K [kg/m3]	mass density, 303.15 K [kg/m3]	mass density, 308.15 K [kg/m3]	speed of sound, 293.15 K [m/s]	speed of sound, 298.15 K [m/s]	speed of sound, 303.15 K [m/s]	speed of sound, 308.15 K [m/s]
x1 = 0.0835	842 ± 4	839 ± 4	835 ± 4	832 ± 4	1376.5 ± 4	1358.3 ± 4	1346.4 ± 4	1322.8 ± 4
x1 = 0.1905	862 ± 4	858 ± 4	855 ± 4	851 ± 4	1369.2 ± 4	1347.9 ± 4	1334.9 ± 4	1311.7 ± 4
x1 = 0.2888	881 ± 4	877 ± 4	873 ± 4	869 ± 4	1360.5 ± 4	1337.3 ± 4	1323.5 ± 4	1300.5 ± 4
x1 = 0.3983	904 ± 4	900 ± 4	896 ± 4	891 ± 4	1350 ± 4	1324.8 ± 4	1310.6 ± 4	1287.6 ± 4
x1 = 0.4948	925 ± 4	921 ± 4	917 ± 4	912 ± 4	1340.2 ± 4	1313.6 ± 4	1298.7 ± 4	1276.4 ± 4
x1 = 0.594	949 ± 4	945 ± 4	940 ± 4	935 ± 4	1330 ± 4	1303 ± 4	1287.9 ± 4	1266 ± 4
x1 = 0.6925	974 ± 4	970 ± 4	965 ± 4	960 ± 4	1321 ± 4	1294.2 ± 4	1278.5 ± 4	1257.4 ± 4
x1 = 0.7952	1003 ± 4	999 ± 4	994 ± 4	988 ± 4	1313 ± 4	1287.5 ± 4	1271.4 ± 4	1250.9 ± 3.9
x1 = 0.899	1035 ± 4	1031 ± 4	1025 ± 4	1020 ± 4	1308 ± 4	1284.9 ± 4	1267.7 ± 4	1248.9 ± 3.9
x1 = 1	1069 ± 4	1065 ± 4	1060 ± 4	1054 ± 4	1306.4 ± 4	1288.2 ± 4	1270 ± 3.9	1252.1 ± 3.9

CCCCCCCCCO [nonan-1-ol] + ClCCCl
Conditions	mass density, 293.15 K [kg/m3]	mass density, 298.15 K [kg/m3]	mass density, 303.15 K [kg/m3]	mass density, 308.15 K [kg/m3]	speed of sound, 293.15 K [m/s]	speed of sound, 298.15 K [m/s]	speed of sound, 303.15 K [m/s]	speed of sound, 308.15 K [m/s]
x2 = 0	828 ± 4	824 ± 4	821 ± 4	818 ± 4	1380.5 ± 4	1364.7 ± 4	1348.1 ± 4	1330.5 ± 4
x2 = 0.0922	845 ± 4	841 ± 4	838 ± 4	834 ± 4	1357.5 ± 4	1341.4 ± 4	1329.7 ± 4	1305.2 ± 4
x2 = 0.2067	869 ± 4	866 ± 4	862 ± 4	858 ± 4	1332.2 ± 4	1315.5 ± 4	1301.2 ± 4	1277.5 ± 4
x2 = 0.2984	892 ± 4	888 ± 4	884 ± 4	880 ± 4	1313.7 ± 4	1296.8 ± 4	1280.6 ± 4	1257.8 ± 4
x2 = 0.406	922 ± 4	918 ± 4	914 ± 4	909 ± 4	1293.1 ± 4	1275.5 ± 4	1258 ± 4	1235 ± 3.9
x2 = 0.4896	950 ± 4	946 ± 4	941 ± 4	936 ± 4	1277.3 ± 4	1260.3 ± 3.9	1242.2 ± 3.9	1219 ± 3.9
x2 = 0.6039	994 ± 4	989 ± 4	984 ± 4	979 ± 4	1258.2 ± 3.9	1240.6 ± 3.9	1221.4 ± 3.9	1199 ± 3.9
x2 = 0.6928	1035 ± 4	1030 ± 4	1025 ± 4	1019 ± 4	1243.5 ± 3.9	1226.4 ± 3.9	1206.5 ± 3.9	1184.8 ± 3.9
x2 = 0.8087	1101 ± 4	1095 ± 4	1089 ± 4	1083 ± 4	1227.5 ± 3.9	1210.5 ± 3.9	1190 ± 3.9	1169 ± 3.9
x2 = 0.9063	1170 ± 4	1163 ± 4	1157 ± 4	1150 ± 4	1216.7 ± 3.9	1199 ± 3.9	1179.2 ± 3.9	1159.9 ± 3.9
